Measurements as given in US20110098325A1, “PYRIDINE BENZAMIDES AND PYRAZINE BENZAMIDES USED AS PKD INHIBITORS” (CANCER RESEARCH TECHNOLOGY LIMITED, priority 2006, published 2011).

target: T1, Murine PKD1 kinase domain (Mus musculus, UniProt Q62101); test: PKD1 (Murine Kinase Domain) Enzyme Activity Assay (IMAP fluorescence polarisation); format: biochemical; details: 10 μM ATP, 60 minutes, room temperature
T1 construct: hexahistidine (pFastBac HTb leader) (N); made in house; host or cells: Sf9 insect cells, baculovirus (Bac-to-Bac HT, pFastBac HTb)
T1 sequence (Q62101 with tags, fused parts or gaps R683W): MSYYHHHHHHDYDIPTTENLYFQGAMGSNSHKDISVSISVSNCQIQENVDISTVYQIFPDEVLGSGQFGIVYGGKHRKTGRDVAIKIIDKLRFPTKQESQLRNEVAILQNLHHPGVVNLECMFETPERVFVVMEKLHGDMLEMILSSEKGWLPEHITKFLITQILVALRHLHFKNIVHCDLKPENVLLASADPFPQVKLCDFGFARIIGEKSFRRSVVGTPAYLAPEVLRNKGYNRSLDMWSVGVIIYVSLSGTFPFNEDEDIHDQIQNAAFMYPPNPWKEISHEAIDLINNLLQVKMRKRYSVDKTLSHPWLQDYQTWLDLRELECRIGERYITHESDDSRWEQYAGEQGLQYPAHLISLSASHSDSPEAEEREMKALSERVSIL

IC50	Compound
< 1000 nM	CN(C)CCNC(=O)c1cccc(-c2cnc(N)c(-c3cncc4ccccc34)c2)c1 [Y-078, 3-(6-Amino-5-isoquinolin-4-yl-pyridin-3-yl)-N-(2-dimethylamino-ethyl)-benzamide]
< 1000 nM	COc1cccc(-c2cc(-c3cccc(C(=O)N(C)CCN(C)C)c3)cnc2N)c1 [Y-075, 3-[6-Amino-5-(3-methoxy-phenyl)-pyridin-3-yl]-(2-dimethylamino-ethyl)-N-methyl-benzamide]
1000 to 10000 nM	COc1cccc(-c2cncc(-c3cccc(C(=O)NCCCN(C)C)c3)n2)c1 [X-001, N-(3-Dimethylamino-propyl)-3-[6-(3-methoxy-phenyl)-pyrazin-2-yl]-benzamide]
1000 to 10000 nM	COc1cc(-c2cncc(-c3cccc(C(=O)NCCN(C)C)c3)n2)cc(OC)c1OC [X-003, N-(2-Dimethylamino-ethyl)-3-[6-(3,4,5-trimethoxy-phenyl)-pyrazin-2-yl]-benzamide]
< 1000 nM	CN(C)CCNC(=O)c1cccc(-c2cnc(N)c(-c3ccc(F)c(Cl)c3)c2)c1 [Y-039, 3-[6-Amino-5-(3-chloro-4-fluoro-phenyl)-pyridin-3-yl]-N-(2-dimethylamino-ethyl)-benzamide]
< 1000 nM	CN(C)CCNC(=O)c1cccc(-c2cnc(N)c(-c3ccc(-c4ccccc4)cc3F)c2)c1 [Y-045, 3-[6-Amino-5-(3-fluoro-biphenyl-4-yl)-pyridin-3-yl]-N-(2-dimethylamino-ethyl)-benzamide]
< 1000 nM	CN1CCN(C(=O)c2cccc(-c3cnc(N)c(-c4cccc5c4oc4ccccc45)n3)c2)CC1 [X-008, [3-(5-Amino-6-dibenzofuran-4-yl-pyrazin-2-yl)-phenyl]-(4-methyl-piperazin-1-yl)-methanone]
< 1000 nM	CN(C)CCNC(=O)c1cccc(-c2cnc(N)c(-c3ccc(OC(F)(F)F)cc3)c2)c1 [Y-064, 3-[6-Amino-5-(4-trifluoromethoxy-phenyl)-pyridin-3-yl]-N-(2-dimethylamino-ethyl)-benzamide]
< 1000 nM	COC(=O)c1ccc(-c2cc(-c3cccc(C(=O)NCCN(C)C)c3)cnc2N)cc1OC [Y-066, 4-{2-Amino-5-[3-(2-dimethylamino-ethylcarbamoyl)-phenyl]-pyridin-3-yl}-2-methoxy-benzoic acid methyl ester]
< 1000 nM	CN(C)CCNC(=O)c1cccc(-c2cnc(N)c(-c3cccs3)c2)c1 [Y-024, 3-(6-Amino-5-thiophen-2-yl-pyridin-3-yl)-N-(2-dimethylamino-ethyl)-benzamide]
< 1000 nM	CN(C)CCNC(=O)c1cccc(-c2cnc(N)c(-c3cccc4c3sc3ccccc34)c2)c1 [Y-015, 3-(6-Amino-5-dibenzothiophen-4-yl-pyridin-3-yl)-N-(2-dimethylamino-ethyl)-benzamide]
< 1000 nM	CC(=O)Nc1cccc(-c2cc(-c3cccc(C(=O)NCCN(C)C)c3)cnc2N)c1 [Y-076, 3-[5-(3-Acetylamino-phenyl)-6-amino-pyridin-3-yl]-N-(2-dimethylamino-ethyl)-benzamide]
< 1000 nM	COc1cc(-c2nc(-c3cccc(C(=O)NCCN(C)C)c3)cnc2N)ccc1F [X-016, 3-[5-Amino-6-(4-fluoro-3-methoxy-phenyl)-pyrazin-2-yl]-N-(2-dimethylamino-ethyl)-benzamide]
1000 to 10000 nM	COc1cc(-c2cc(-c3cccc(C(=O)N4CCN(C)CC4)c3)cnc2N)ccc1O [Y-004, {3-[6-Amino-5-(4-hydroxy-3-methoxy-phenyl)-pyridin-3-yl]-phenyl}-(4-methyl-piperazin-1-yl)-methanone]
1000 to 10000 nM	COc1ccccc1-c1cc(-c2cccc(C(=O)N3CCN(C)CC3)c2)cnc1N [Y-003, {3-[6-Amino-5-(2-methoxy-phenyl)-pyridin-3-yl]-phenyl}-(4-methyl-piperazin-1-yl)-methanone]
< 1000 nM	CC(C)Cc1ccc(-c2cc(-c3cccc(C(=O)NCCN(C)C)c3)cnc2N)cc1 [Y-062, 3-[6-Amino-5-(4-isobutyl-phenyl)-pyridin-3-yl]-N-(2-dimethylamino-ethyl)-benzamide]
< 1000 nM	CN(C)CCNC(=O)c1cccc(-c2cnc(N)c(-c3ccc4c(ccn4C)c3)c2)c1 [Y-027, 3-[6-Amino-5-(1-methyl-1H-indol-5-yl)-pyridin-3-yl]-N-(2-dimethylamino-ethyl)-benzamide]
< 1000 nM	CCN(CC)CCNC(=O)c1cccc(-c2cnc(N)c(-c3cccc(OC)c3)n2)c1 [X-027, 3-[5-Amino-6-(3-methoxy-phenyl)-pyrazin-2-yl]-N-(2-diethylamino-ethyl)-benzamide]
< 1000 nM	CN(C)CCNC(=O)c1cccc(-c2cnc(N)c(-c3cccc4ccccc34)c2)c1 [Y-019, 3-(6-Amino-5-naphthalen-1-yl-pyridin-3-yl)-N-(2-dimethylamino-ethyl)-benzamide]

IC50	Compound
< 1000 nM	CC(=O)Nc1cccc(-c2cncc(-c3cccc(C(=O)NCCCN(C)C)c3)n2)c1 [X-006, 3-[6-(3-Acetylamino-phenyl)-pyrazin-2-yl]-N-(3-dimethylamino-propyl)-benzamide]
< 1000 nM	CN(C)CCNC(=O)c1cccc(-c2cnc(N)c(-c3cc4ccccc4s3)c2)c1 [Y-011, 3-(6-Amino-5-benzo[b]thiophen-2-yl-pyridin-3-yl)-N-(2-dimethylamino-ethyl)-benzamide]
1000 to 10000 nM	CN(C)CCNC(=O)c1cccc(-c2cnc(N)c(-c3cccc(S(C)(=O)=O)c3)c2)c1 [Y-072, 3-[6-Amino-5-(3-methanesulfonyl-phenyl)-pyridin-3-yl]-N-(2-dimethylamino-ethyl)-benzamide]
1000 to 10000 nM	COc1cc(-c2cncc(-c3cccc(C(N)=O)c3)n2)ccc1O [X-018, 3-[6-(4-Hydroxy-3-methoxy-phenyl)-pyrazin-2-yl]-benzamide]
< 1000 nM	CN(C)CCNC(=O)c1cccc(-c2cnc(N)c(-c3ccncc3)c2)c1 [Y-084, 3-(2-Amino-[3,4′]bipyridinyl-5-yl)-N-(2-dimethylamino-ethyl)-benzamide]
1000 to 10000 nM	COc1ccccc1-c1cncc(-c2cccc(C(=O)NCCN(C)C)c2)n1 [X-002, N-(2-Dimethylamino-ethyl)-3-[6-(2-methoxy-phenyl)-pyrazin-2-yl]-benzamide]
< 1000 nM	CN(C)CCNC(=O)c1cccc(-c2cnc(N)c(-c3ccc(OC4CCCCO4)cc3)c2)c1 (centres unmarked) [Y-065, 3-{6-Amino-5-[4-(tetrahydro-pyran-2-yloxy)-phenyl]-pyridin-3-yl}-N-(2-dimethylamino-ethyl)-benzamide]
< 1000 nM	COc1cc(-c2cc(-c3cccc(C(=O)NCCN(C)C)c3)cnc2N)ccn1 [Y-005, 3-(2-Amino-2′-methoxy-[3,4′]bipyridinyl-5-yl)-N-(2-dimethylamino-ethyl)-benzamide]
< 1000 nM	COc1cc(-c2cc(-c3cccc(C(=O)NCCN(C)C)c3)cnc2N)cc(OC)c1OC [Y-088, 3-[6-Amino-5-(3,4,5-trimethoxy-phenyl)-pyridin-3-yl]-N-(2-dimethylamino-ethyl)-benzamide]
< 1000 nM	COc1cc(-c2cc(-c3cccc(C(=O)NCCCN(C)C)c3)cnc2N)ccc1O [Y-060, 3-[6-Amino-5-(4-hydroxy-3-methoxy-phenyl)-pyridin-3-yl]-N-(3-dimethylamino-propyl)-benzamide]
< 1000 nM	COc1cc(-c2cc(-c3cccc(C(=O)NCCN(C)C)c3)cnc2N)ncn1 [Y-093, 3-[6-Amino-5-(6-methoxy-pyrimidin-4-yl)-pyridin-3-yl]-N-(2-dimethylamino-ethyl)-benzamide]
< 1000 nM	Cc1ccc(-c2cc(-c3cccc(C(=O)NCCN(C)C)c3)cnc2N)cc1C [Y-036, 3-[6-Amino-5-(3,4-dimethyl-phenyl)-pyridin-3-yl]-N-(2-dimethylamino-ethyl)-benzamide]
1000 to 10000 nM	CN(C)CCNC(=O)c1cccc(-c2cnc(N)c(-c3ccccc3OCc3ccccc3)c2)c1 [Y-030, 3-[6-Amino-5-(2-benzyloxy-phenyl)-pyridin-3-yl]-N-(2-dimethylamino-ethyl)-benzamide]
< 1000 nM	NC(=O)c1cccc(-c2cnc(N)c(-c3ccc4[nH]ccc4c3)c2)c1 [Y-025, 3-[6-Amino-5-(1H-indol-5-yl)-pyridin-3-yl]-benzamide]
1000 to 10000 nM	COc1cc(F)ccc1-c1cc(-c2cccc(C(=O)NCCN(C)C)c2)cnc1N [Y-054, 3-[6-Amino-5-(4-fluoro-2-methoxy-phenyl)-pyridin-3-yl]-N-(2-dimethylamino-ethyl)-benzamide]
< 1000 nM	CN(C)CCNC(=O)c1cccc(-c2cnc(N)c(-c3cccc4ncccc34)c2)c1 [Y-022, 3-(6-Amino-5-quinolin-5-yl-pyridin-3-yl)-N-(2-dimethylamino-ethyl)-benzamide]
< 1000 nM	COc1cncc(-c2cc(-c3cccc(C(=O)NCCN(C)C)c3)cnc2N)c1 [Y-089, 3-(2-Amino-5′-methoxy-[3,3′]bipyridinyl-5-yl)-N-(2-dimethylamino-ethyl)-benzamide]
< 1000 nM	CN(C)CCNC(=O)c1cccc(-c2cnc(N)c(-c3ccc4[nH]ccc4c3)c2)c1 [Y-026, 3-[6-Amino-5-(1H-indol-5-yl)-pyridin-3-yl]-N-(2-dimethylamino-ethyl)-benzamide]
< 1000 nM	CN(C)CCNC(=O)c1cccc(-c2cnc(N)c(-c3ccc(CO)cc3)c2)c1 [Y-061, 3-[6-Amino-5-(4-hydroxymethyl-phenyl)-pyridin-3-yl]-N-(2-dimethylamino-ethyl)-benzamide]
